{"source": "patent US8653271B2", "about": "(priority 2006, dated 2014)", "key": {"[1]": {"details": "Table 4; values obtained from Kiptoo et al.; cited from earlier work"}, "[2]": {"details": "human skin, values obtained from Kiptoo et al., cited from earlier work; for In vitro flux: codrug as NTXOL equivalent flux"}, "[3]": {"experiment": "Plasma hydrolysis of the carbonate codrug", "assay_type": "in vitro ADME, guinea pig", "details": "for Guinea pig plasma half-life: guinea pig plasma in vitro at 37° C.", "description": "Guinea pig plasma, which was stored at −20° C., was thawed to room temperature. Known and sub-saturated amounts of the codrug (50 nmol) were added to approximately 2.0 ml of the guinea pig plasma and vortexed. Two-hundred μl aliquots of the spiked plasma were distributed into sealed vials, and incubated at 37° C. Samples were withdrawn at predetermined time intervals; 0, 0.5, 1, 2, 4, 6, 9, 24, 30, and 48 h. 500 μl of ACN was added to each sample to precipitate plasma protein. Each sample was vortexed and centrifuged at 10,000×g for 15 min. The supernatant was separated and evaporated under nitrogen at room temperature, and the residue was reconstituted with ACN for high-pressure liquid chromatography (HPLC) analysis. A standard curve was prepared from drug-spiked plasma samples processed by the same method. The amounts of the codrug remaining or parent drugs released were plotted against time. These hydrolytic profiles were fit to previously developed mathematical models using nonlinear least-squares regression analysis ([…]®, Micromath Inc., Salt Lake City, Utah) as described by the equations below: […]"}, "physchem": {"experiment": "physchem", "assay_type": "physicochemical", "details": "for Light mineral oil solubility: 32° C., 48 h equilibration (Table 3); for Hanks' buffer solubility: pH 7.4, 32° C., 30 min sonication", "description": "The solubilities of CB-NTXOL-BUPOH, hydroxybupropion, and 6-β-naltrexol were determined by adding excess quantity of drug to mineral oil or pre-warmed HEPES-buffered Hanks' salt solution pH 7.4 at 32° C. (skin surface temperature), with equilibration while shaking in a water bath at 60 rpm. Weighing 4 mg of each of the drugs and placing them in 1 ml of each of the respective solvents was enough to ensure that there was excess drug in solution. Samples were drawn into a pre-warmed glass syringe, filtered through a syringe filter (Mineral oil: Millex FG-13, Millipore, Billerica, Mass., USA, and buffer: nylon filter, Gelman, East Hills, N.Y., USA), and measured with respect to volume and diluted with an appropriate volume of acetonitrile or buffer. The drug from the buffer samples was immediately extracted by solid phase extraction as described above. Drugs in mineral oil were diluted with a hundred-fold volume of acetonitrile and extraction recoveries were >95% for all the drugs. The sampling procedure was done in triplicate, discarding the first 40% of the initial filtrate. […]. For buffer solubilities, samples were taken after 30 min of sonication (to minimize the hydrolysis of the codrug). No significant difference was found between 30 min sonication solubility measurements and equilibrium solubility measurements taken after 48 h for 6-β-naltrexol."}, "[4]": {"experiment": "Stratum corneum/vehicle partition coefficient studies", "assay_type": "in vitro ADME, human", "details": "mineral oil vehicle, 32° C., 48 h; no units", "description": "Human epidermis with stratum corneum (SC) side facing up was incubated on filter paper soaked with 0.1% trypsin in 0.5% sodium bicarbonate solution at 37° C. for 3 h. The SC membrane was separated and dried in a vacuum dessicator. After 24 h, the SC was dipped in acetone for 20 s to remove sebaceous lipids and dried again.\nApproximately 5 mg of SC was equilibrated with sub-saturated drug solutions in 0.5 g of mineral oil solution at 32° C. for 48 h. Two different levels of sub-saturated drug solutions, 10 and 20 nmol in 0.5 g of mineral oil, were used in SC/vehicle partition coefficient studies. However, irrespective of the drug concentrations used, the ratio derived should always be the same since the partition coefficient measurement is an equilibrium phenomenon. An aliquot of the mineral oil solution (10 μl) was withdrawn at the end of the study and was diluted to 1000 μl with acetonitrile. The samples were then analyzed by HPLC. The amount of the drug partitioned into the SC was measured by subtracting the amount present in the mineral oil after equilibration from the initial drug concentration in the mineral oil. The partition coefficient ratio was expressed as the concentration of the drug in 1 g of SC divided by the concentration of the drug in 1 g of mineral oil."}, "[5]": {"details": "human skin; for Mean permeability coefficient (KP × 10^3): from steady-state flux and donor solubility; for Flux from mineral oil: saturated solution in light mineral oil, 32° C., 48 h, codrug in 6-β-naltrexol equivalents", "description": "Human skin harvested during abdominal reduction surgery was used for the diffusion studies. Skin sections were obtained by using a Padgett dermatome set to 250 μm; these sections were stored at −20° C. Stored skin samples were thawed to room temperature at the time of the experiment. A PermeGear flow-through (In-Line, Riegelsville, Pa., USA) diffusion cell system was used for the skin permeation studies. Skin surface temperature was maintained at 32° C. with a circulating water bath. Data was collected by using human skin from a single donor with three cells of 6-β-naltrexol and four cells CB-NTXOL-BUPOH. Because of normal human skin inter-subject permeation variability, the codrug was compared against 6-β-naltrexol permeation within each individual skin sample. These studies were repeated three times with skin from different human subject donors. The receiver solution was HEPES-buffered Hanks' balanced salt solution pH 7.4 set at a flow rate of 1.1 ml/h. […] A saturated solution of 6-β-naltrexol or CB-NTXOL-BUPOH in light mineral oil was applied to the skin in order to maintain a maximum and constant thermodynamic activity of the drug. Each cell was charged with 0.25 ml of the respective drug solution. […] All samples were immediately processed by solid phase extraction, evaporated under nitrogen, reconstituted, and analyzed for drug content by HPLC. The human tissue use was approved by the University of Kentucky Institutional Review Board.\nCumulative quantity of drug collected in the receiver compartment was plotted as a function of time. The flux value for a given experiment was obtained from the slope of the steady-state portion of the cumulative amount of drug permeated vs. time plot. Apparent permeability coefficient values were computed from Fick's First Law of diffusion:\nSink conditions were maintained in the receiver throughout the experiment, so ΔC was approximated by the drug concentration (solubility in this case) in the donor compartment.\nThe skin tissue was rinsed with filtered water and blotted with a paper towel. The tissue was tape-stripped twice to remove surface formulation. The area of skin with drug contact was cut out, chopped into tiny pieces, and placed in a pre-weighed vial. The vial was weighed to calculate the mass of the skin. Ten milliliters of acetonitrile was added to each vial, the vials vortexed, sonicated for 10 min, and placed in a shaker overnight. The following day, a 1 ml sample was obtained from the vials and placed in autosampler vials for analysis. […] Flux values and skin concentrations for each of the drugs were reported as mean±S.D and were statistically compared using a paired Student's t-test. Flux enhancement as well as drug disposition in the skin were considered significant at p<0.05."}, "[6]": {"experiment": "Differential scanning calorimetry", "assay_type": "physicochemical", "details": "for Mean activity of solid @ T = 25° C., a2: calculated from melting point and heat of fusion; for Heat of fusion, ΔHf: ±s.d., n = 3"}, "[7]": {"details": "cumulative 6-β-naltrexol equivalents permeated"}}, "note": "Read-outs that look alike come from different tables or passages of the source."}
{"smiles": "Oc1ccc2c3c1O[C@H]1[C@H](O)CC[C@@]4(O)[C@@H](C2)N(CC2CC2)CC[C@]314", "note": "[Compound 2, 6-β-naltrexol]", "values": [{"measurement": "Light mineral oil solubility", "setting": "[1]", "result": "30 ± 10", "unit": "µM"}, {"measurement": "In vitro flux", "setting": "[2]", "result": "0.36 ± 0.15", "unit": "nmol cm^−2 h^−1"}, {"measurement": "In vitro lag time", "setting": "[2]", "result": "15.72 ± 1.76", "unit": "h"}, {"measurement": "Guinea pig plasma half-life", "setting": "[3]", "result": "stable"}, {"measurement": "Light mineral oil solubility", "setting": "physchem", "result": 30, "unit": "µM"}, {"measurement": "Hanks' buffer solubility", "setting": "physchem", "result": 300, "unit": "µM"}, {"measurement": "SC/Vehicle partition coefficient, PC", "setting": "[4]", "result": 73.91}, {"measurement": "Mean permeability coefficient (KP × 10^3)", "setting": "[5]", "result": 12.00, "unit": "cm/h"}, {"measurement": "Flux from mineral oil", "setting": "[5]", "result": 0.36, "unit": "nmol cm^−2 h^−1"}, {"measurement": "Mean activity of solid @ T = 25° C., a2", "setting": "[6]", "result": 0.12}, {"measurement": "Heat of fusion, ΔHf", "setting": "[6]", "result": "3.597 ± 0.0478", "unit": "kcal/mol"}]}
{"smiles": "Cc1c(-c2cccc(Cl)c2)oc(=O)n1C(C)(C)COC(=O)Oc1ccc2c3c1OC1C(O)CCC4(O)C(C2)N(CC2CC2)CCC314", "note": "(centres unmarked) [Compound 26]", "values": [{"measurement": "Light mineral oil solubility", "setting": "[1]", "result": "2880 ± 90", "unit": "µM"}, {"measurement": "In vitro flux", "setting": "[2]", "result": "1.34 ± 0.35", "unit": "nmol cm^−2 h^−1"}, {"measurement": "In vitro lag time", "setting": "[2]", "result": "12.10 ± 0.77", "unit": "h"}, {"measurement": "Guinea pig plasma half-life", "setting": "[3]; listed as CB-NTXOL-BUPOH", "result": 8.7, "unit": "h"}, {"measurement": "Guinea pig plasma half-life", "setting": "[3]; listed as codrug", "result": "approximately 8.7 h"}, {"measurement": "hydrolysis in guinea pig plasma compared to pH 7.4 phosphate buffer", "setting": "[3]; in vitro", "result": "almost three-fold faster hydrolysis"}, {"measurement": "Light mineral oil solubility", "setting": "physchem", "result": 2880, "unit": "µM"}, {"measurement": "Hanks' buffer solubility", "setting": "physchem", "result": 530, "unit": "µM"}, {"measurement": "SC/Vehicle partition coefficient, PC", "setting": "[4]", "result": 200.61}, {"measurement": "share of 6-β-naltrexol flux from intact CB-NTXOL-BUPOH", "setting": "[5]; [7]", "result": "approximately 35%"}, {"measurement": "share of 6-β-naltrexol flux originating from skin hydrolysis of codrug", "setting": "[5]; [7]", "result": 65, "unit": "%"}, {"measurement": "Mean permeability coefficient (KP × 10^3)", "setting": "[5]", "result": 0.47, "unit": "cm/h"}, {"measurement": "Flux from mineral oil", "setting": "[5]", "result": 1.34, "unit": "nmol cm^−2 h^−1"}, {"measurement": "Mean activity of solid @ T = 25° C., a2", "setting": "[6]", "result": 0.20}, {"measurement": "Heat of fusion, ΔHf", "setting": "[6]", "result": "3.031 ± 0.019", "unit": "kcal/mol"}]}
